In patent US8829029B2, “Dual modulators of 5HT2A and D3 receptors” (Hoffmann-La Roche Inc., priority 2008, dated 2014):

Legend:
[1] = target: human 5-HT2A serotonin receptor (Homo sapiens (Human), UniProt P28223); assay: Radioligand binding ([3H]-ketanserin) to cloned human 5-HT2A receptor expressed in HEK-293 EBNA cells; conditions: membranes of transfected HEK-293 EBNA cells, 1.1 nM [3H]-ketanserin, 1 h at RT
Procedure, shortened: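 Membranes from transiently transfected HEK-293 EBNA cells incubated 1 h at RT with 1.1 nM [3H]-ketanserin (5-HT2A, 15 μg protein/well, Tris/MgCl2/EGTA pH 7.4) or 0.5 nM [3H]-spiperone (D3, 7.5 μg/well, Tris/NaCl/MgCl2/KCl/CaCl2 pH 7.4) plus test compound at 10 μM-0.1 nM. Nonspecific binding with 10 μM spiperone; filtration, Ki via Cheng-Prusoff.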

[2] = target: human D3 dopamine receptor (Homo sapiens (Human), UniProt P35462); assay: Radioligand binding ([3H]-spiperone) to cloned human D3 receptor expressed in HEK-293 EBNA cells; conditions: membranes of transfected HEK-293 EBNA cells, 0.5 nM [3H]-spiperone, 1 h at RT
Chain of human D3 dopamine receptor (P35462 whole entry): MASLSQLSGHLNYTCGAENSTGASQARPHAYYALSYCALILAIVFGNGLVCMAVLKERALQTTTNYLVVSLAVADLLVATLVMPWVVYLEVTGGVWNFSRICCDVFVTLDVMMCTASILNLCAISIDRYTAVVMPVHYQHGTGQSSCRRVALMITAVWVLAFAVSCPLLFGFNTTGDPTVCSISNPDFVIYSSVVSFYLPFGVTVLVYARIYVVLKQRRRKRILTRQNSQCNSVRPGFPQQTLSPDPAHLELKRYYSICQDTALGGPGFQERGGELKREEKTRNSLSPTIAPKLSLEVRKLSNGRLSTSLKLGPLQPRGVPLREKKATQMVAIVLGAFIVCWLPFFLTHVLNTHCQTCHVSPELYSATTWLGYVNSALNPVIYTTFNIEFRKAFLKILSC
Procedure, shortened: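 Membranes from HEK-293 EBNA cells transiently transfected with human D3 receptor, incubated 1 h at RT with ~0.5 nM [3H]-spiperone and ten compound concentrations (10 μM-0.1 nM); nonspecific binding with 10 μM spiperone. Filtered, scintillation counted; IC50 from four-parameter fit, Ki via Cheng-Prusoff using saturation Kd.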

| SMILES | Ki [1] | Ki [2] |
| --- | --- | --- |
| CC1(O)CCC(CC(=O)N[C@H]2CC[C@H](CCN3CCC(c4noc5cc(Cl)ccc45)CC3)CC2)CC1 (stereo partly drawn) [Example 45, N-trans(4-{2-[4-(6-Chloro-benzo[d]isoxazol-3-yl)-piperidin-1-yl]-ethyl}-cyclohexyl)-2-(4-hydroxy-4-methyl-cyclohexyl)-acetamide] | 15 nM | 7 nM |
| CC(=O)N[C@H]1CC[C@H](CCN2CCC(c3noc4cc(Cl)ccc34)CC2)CC1 [Example 46, N-trans(4-{2-[4-(6-Chloro-benzo[d]isoxazol-3-yl)-piperidin-1-yl]-ethyl}-cyclohexyl)-acetamide] | 23.7 nM | 8.19 nM |
| CCS(=O)(=O)N[C@H]1CC[C@H](CCN2CCC(c3noc4cc(F)ccc34)CC2)CC1 [Example 47, Ethanesulfonic acid (4-trans {2-[4-(6-fluoro-benzo[d]isoxazol-3-yl)-piperidin-1-yl]-ethyl}-cyclohexyl)-amide] | 1.66 nM | 5.85 nM |
| O=S(=O)(N[C@H]1CC[C@H](CCN2CCC(c3noc4cc(F)ccc34)CC2)CC1)c1ccc(Cl)cc1 [Example 48, 4-Chloro-N-trans (4-{2-[4-(6-fluoro-benzo[d]isoxazol-3-yl)-piperidin-1-yl]-ethyl}-cyclohexyl)-benzenesulfonamide] | 5.13 nM | 5.87 nM |
| COc1ccc(S(=O)(=O)N[C@H]2CC[C@H](CCN3CCC(c4noc5cc(F)ccc45)CC3)CC2)cc1 [Example 49, N-trans(4-{2-[4-(6-Fluoro-benzo[d]isoxazol-3-yl)-piperidin-1-yl]-ethyl}-cyclohexyl)-4-methoxy-benzenesulfonamide] | 4.39 nM | 3.72 nM |
| N#CCC(=O)N[C@H]1CC[C@H](CCN2CCC(c3noc4cc(Cl)ccc34)CC2)CC1 [Example 51, N-trans-(4-{2-[4-(6-Chloro-benzo[d]isoxazol-3-yl)-piperidin-1-yl]-ethyl}-cyclohexyl)-2-cyano-acetamide] | 23.7 nM | 8.19 nM |
| N#CCCC(=O)N[C@H]1CC[C@H](CCN2CCC(c3noc4cc(Cl)ccc34)CC2)CC1 [Example 52, N-trans-(4-{2-[4-(6-Chloro-benzo[d]isoxazol-3-yl)-piperidin-1-yl]-ethyl}-cyclohexyl)-3-cyano-propionamide] | 15.6 nM | 8.77 nM |
| O=C(C[C@H]1CCCO1)N[C@H]1CC[C@H](CCN2CCC(c3noc4cc(Cl)ccc34)CC2)CC1 [Example 53, N-trans-(4-{2-[4-(6-Chloro-benzo[d]isoxazol-3-yl)-piperidin-1-yl]-ethyl}-cyclohexyl)-2-(R)-tetrahydro-furan-2-yl-acetamide] | 6.19 nM | 14.4 nM |
| O=C(CC1CC1)N[C@H]1CC[C@H](CCN2CCC(c3noc4cc(Cl)ccc34)CC2)CC1 [Example 54, N-trans-(4-{2-[4-(6-Chloro-benzo[d]isoxazol-3-yl)-piperidin-1-yl]-ethyl}-cyclohexyl)-2-cyclopropyl-acetamide] | 13.1 nM | 3.21 nM |
| O=C(CO)N[C@H]1CC[C@H](CCN2CCC(c3noc4cc(Cl)ccc34)CC2)CC1 [Example 55, N-trans-(4-{2-[4-(6-Chloro-benzo[d]isoxazol-3-yl)-piperidin-1-yl]-ethyl}-cyclohexyl)-2-hydroxy-acetamide] | 15 nM | 16.8 nM |
| CS(=O)(=O)CC(=O)N[C@H]1CC[C@H](CCN2CCC(c3noc4cc(Cl)ccc34)CC2)CC1 [Example 56, N-trans-(4-{2-[4-(6-Chloro-benzo[d]isoxazol-3-yl)-piperidin-1-yl]-ethyl}-cyclohexyl)-2-methanesulfonyl-acetamide] | 15.2 nM | 14.8 nM |
| O=C(CC1OCCCO1)N[C@H]1CC[C@H](CCN2CCC(c3noc4cc(Cl)ccc34)CC2)CC1 [Example 57, N-trans-(4-{2-[4-(6-Chloro-benzo[d]isoxazol-3-yl)-piperidin-1-yl]-ethyl}-cyclohexyl)-2-[1,3]dioxan-2-yl-acetamide] | 17.6 nM | 6.13 nM |
| CO[C@H]1CC[C@H](CC(=O)N[C@H]2CC[C@H](CCN3CCC(c4noc5ccc(Cl)cc45)CC3)CC2)CC1 [Example 58, N-trans-(4-{2-[4-(5-Chloro-benzo[d]isoxazol-3-yl)-piperidin-1-yl]-ethyl}-cyclohexyl)-2-(4-methoxy-cyclohexyl)-acetamide] | 24.7 nM | 8.38 nM |
| CS(=O)(=O)N[C@H]1CC[C@H](CCN2CCC(c3noc4ccc(F)cc34)CC2)CC1 [Example 59, N-trans-(4-{2-[4-(5-Fluoro-benzo[d]isoxazol-3-yl)-piperidin-1-yl]-ethyl}-cyclohexyl)-methanesulfonamide] | 27.5 nM | 7.98 nM |
| COCCC(=O)N[C@H]1CC[C@H](CCN2CCC(c3noc4cc(Cl)c(F)cc34)CC2)CC1 [Example 60, N-trans-(4-{2-[4-(6-Chloro-5-fluoro-benzo[d]isoxazol-3-yl)-piperidin-1-yl]-ethyl}-cyclohexyl)-3-methoxy-propionamide] | 44 nM | 13.5 nM |
| O=C(CC1CCCO1)N[C@H]1CC[C@H](CCN2CCC(c3noc4cc(Cl)c(F)cc34)CC2)CC1 (stereo partly drawn) [Example 61, N-trans-(4-{2-[4-(6-Chloro-5-fluoro-benzo[d]isoxazol-3-yl)-piperidin-1-yl]-ethyl}-cyclohexyl)-2-(tetrahydro-furan-2-yl)-acetamide] | 31 nM | 17.7 nM |
| COCC(=O)N[C@H]1CC[C@H](CCN2CCC(c3noc4cc(F)c(F)cc34)CC2)CC1 [Example 62, N-trans-(4-{2-[4-(5,6-Difluoro-benzo[d]isoxazol-3-yl)-piperidin-1-yl]-ethyl}-cyclohexyl)-2-methoxy-acetamide] | 10.5 nM | 32.7 nM |
| CO[C@@H]1CC[C@@H](CC(=O)N[C@H]2CC[C@H](CCN3CCC(c4noc5cc(F)c(F)cc45)CC3)CC2)C1 [Example 63, N-trans-(4-{2-[4-(5,6-Difluoro-benzo[d]isoxazol-3-yl)-piperidin-1-yl]-ethyl}-cyclohexyl)-2-((1R,3R)-3-methoxy-cyclopentyl)-acetamide] | 13.2 nM | 20 nM |
| CO[C@H]1CC[C@H](CC(=O)N[C@H]2CC[C@H](CCN3CCC(c4noc5cc(F)c(F)cc45)CC3)CC2)CC1 [Example 64, N-trans-(4-{2-[4-(5,6-Difluoro-benzo[d]isoxazol-3-yl)-piperidin-1-yl]-ethyl}-cyclohexyl)-2-(4-methoxy-cyclohexyl)-acetamide] | 7.67 nM | 17.3 nM |
| COCCC(=O)N[C@H]1CC[C@H](CCN2CCC(c3noc4cc(F)c(F)cc34)CC2)CC1 [Example 65, N-trans-(4-{2-[4-(5,6-Difluoro-benzo[d]isoxazol-3-yl)-piperidin-1-yl]-ethyl}-cyclohexyl)-3-methoxy-propionamide] | 12.9 nM | 11.4 nM |
| CC(=O)N[C@H]1CC[C@H](CCN2CCC(c3noc4cc(F)c(F)cc34)CC2)CC1 [Example 66, N-trans-(4-{2-[4-(5,6-Difluoro-benzo[d]isoxazol-3-yl)-piperidin-1-yl]-ethyl}-cyclohexyl)-acetamide] | 17.7 nM | 11.4 nM |
| O=C(CO)N[C@H]1CC[C@H](CCN2CCC(c3noc4cc(F)c(F)cc34)CC2)CC1 [Example 67, N-trans-(4-{2-[4-(5,6-Difluoro-benzo[d]isoxazol-3-yl)-piperidin-1-yl]-ethyl}-cyclohexyl)-2-hydroxy-acetamide] | 11.8 nM | 19.9 nM |
